Experimental findings from patent US11319298B2 (Merck Sharp & Dohme Corp., priority 2016, dated 2022) are described below.

Molecules are shown by their SMILES.

The target of this assay is T1, human M4 muscarinic acetylcholine receptor (Homo sapiens, UniProt P08173).
T1 construct: expressed in transfected cells; host or cells: CHO-K1
T1 sequence (P08173 1-479): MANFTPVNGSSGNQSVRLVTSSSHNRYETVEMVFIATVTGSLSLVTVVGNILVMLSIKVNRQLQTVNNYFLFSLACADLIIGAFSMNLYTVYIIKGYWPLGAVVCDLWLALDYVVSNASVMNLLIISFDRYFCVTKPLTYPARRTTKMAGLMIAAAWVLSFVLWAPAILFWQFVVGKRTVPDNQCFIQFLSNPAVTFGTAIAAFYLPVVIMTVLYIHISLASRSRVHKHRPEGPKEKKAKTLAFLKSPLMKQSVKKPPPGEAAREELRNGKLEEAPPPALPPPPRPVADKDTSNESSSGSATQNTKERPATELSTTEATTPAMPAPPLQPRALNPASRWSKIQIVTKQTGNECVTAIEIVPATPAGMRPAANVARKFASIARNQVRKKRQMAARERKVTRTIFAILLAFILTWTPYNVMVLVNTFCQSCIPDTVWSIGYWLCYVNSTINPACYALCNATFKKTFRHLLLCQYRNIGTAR
Kind of assay: human FLIPR-based M4 PAM assay, CHO-K1 cells stably transfected with human M4 receptor and chimeric G-protein Gαqi5. Format: cell-based. As to conditions: inflection point (IP) of dose response curve; acetylcholine added at 20% of maximum response; CHO-K1 human M4/Gαqi5, FLIPR Tetra. A digest of the protocol:
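CHO-K1 cells were loaded with calcium dye at 37 °C for ~1 h. Fluorescence (ex 470–495/em 515–575 nm) was read for 4 min after test compound at increasing concentrations, then 3.5 min after acetylcholine at an EC20; sometimes a third addition at EC70 followed. The value is the inflection point of a 4-parameter logistic fit.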
Turning to `COc1ccc(OC2CCN(c3nnc(C(=O)NCc4ccn(C)n4)cc3C)CC2)cn1` [Example 134, 6-{4-[(6-methoxypyridin-3-yl)oxy]piperidin-1-yl}-5-methyl-N-[(1-methyl-1H-pyrazol-3-yl)methyl]pyridazine-3-carboxamide], the EC50 turned out to be 151 nM. Take `Cc1cc(C(=O)NCc2ccncc2)nnc1N1CCC(Oc2ccc3c(c2)C(=O)N(C)C3)CC1` [Example 135, 5-methyl-6-{4-[(2-methyl-3-oxo-2,3-dihydro-1H-isoindol-5-yl)oxy]piperidin-1-yl}-N-(pyridin-4-ylmethyl)pyridazine-3-carboxamide]: the EC50 is 158 nM.

For the compound `COc1ccc(OC2CCN(c3nnc(C(=O)NC4CCc5cccnc5C4)cc3C)CC2)cn1` (stereo not drawn) [Example 136, 6-{4-[(6-methoxypyridin-3-yl)oxy]piperidin-1-yl}-5-methyl-N-(5,6,7,8-tetrahydroquinolin-7-yl)pyridazine-3-carboxamide], the EC50 worked out at 173 nM. Then `COc1ccc(OC2CCN(c3nnc(C(=O)Nc4cccnc4)cc3C)CC2)cn1` [Example 137, 6-{4-[(6-methoxypyridin-3-yl)oxy]piperidin-1-yl}-5-methyl-N-pyridin-3-ylpyridazine-3-carboxamide], with 175 nM; and `COc1ccc(O[C@@H]2CCN(c3nnc(C(=O)N[C@H]4CCc5ncccc5C4)cc3C)C[C@@H]2F)cn1` [Example 138A, 6-((3S,4R)-3-fluoro-4-((6-methoxypyridin-3-yl)oxy)piperidin-1-yl)-5-methyl-N-((S)-5,6,7,8-tetrahydroquinolin-6-yl)pyridazine-3-carboxamide], with 177 nM. Then `COc1ccc(O[C@@H]2CCN(c3nnc(C(=O)N[C@@H]4CCc5ncccc5C4)cc3C)C[C@@H]2F)cn1` [Example 138B, 6-((3S,4R)-3-fluoro-4-((6-methoxypyridin-3-yl)oxy)piperidin-1-yl)-5-methyl-N-((R)-5,6,7,8-tetrahydroquinolin-6-yl)pyridazine-3-carboxamide], with 243 nM. Compound `COc1ccc(OC2CCN(c3nnc(C(=O)NCc4ccnnc4)cc3C)CC2)cn1` [Example 139, 6-{4-[(6-methoxypyridin-3-yl)oxy]piperidin-1-yl}-5-methyl-N-(pyridazin-4-ylmethyl)pyridazine-3-carboxamide] showed an EC50 of 177 nM. Then `COc1ncc(OC2CCN(c3nnc(C(=O)NCc4ccncc4)cc3C)CC2)cc1F` [Example 140, 6-{4-[(5-fluoro-6-methoxypyridin-3-yl)oxy]piperidin-1-yl}-5-methyl-N-(pyridin-4-ylmethyl)pyridazine-3-carboxamide], with 179 nM; and `COc1ccc(OC2CCN(c3nnc(C(=O)N[C@@H]4CCc5ncccc5C4)cc3C)CC2)cn1` [Example 141A, (R)-6-(4-((6-methoxypyridin-3-yl)oxy)piperidin-1-yl)-5-methyl-N-(5,6,7,8-tetrahydroquinolin-6-yl)pyridazine-3-carboxamide], with 57 nM; and `COc1ccc(OC2CCN(c3nnc(C(=O)N[C@H]4CCc5ncccc5C4)cc3C)CC2)cn1` [Example 141B, (S)-6-(4-((6-methoxypyridin-3-yl)oxy)piperidin-1-yl)-5-methyl-N-(5,6,7,8-tetrahydroquinolin-6-yl)pyridazine-3-carboxamide], with 173 nM. Then `COc1ccc(OC2CCN(c3nnc(C(=O)NCCn4ccnn4)cc3C)CC2)cn1` [Example 142, 6-{4-[(6-methoxypyridin-3-yl)oxy]piperidin-1-yl}-5-methyl-N-[2-(1H-1,2,3-triazol-1-yl)ethyl]pyridazine-3-carboxamide], with 185 nM; and `Cc1nc2ccc(OC3CCN(c4nnc(C(=O)NCc5ccncc5)cc4C)CC3)cc2o1` [Example 143, 5-methyl-6-{4-[(2-methyl-1,3-benzoxazol-6-yl)oxy]piperidin-1-yl}-N-(pyridin-4-ylmethyl)pyridazine-3-carboxamide], with 193 nM. As to `Cc1cc(C(=O)NC2CCc3cccnc3C2)nnc1N1CCC(OCC2CC2)CC1` (stereo not drawn) [Example 144, 6-[4-(cyclopropylmethoxy)piperidin-1-yl]-5-methyl-N-(5,6,7,8-tetrahydroquinolin-7-yl)pyridazine-3-carboxamide], a half-maximal effect (EC50) was put at 193 nM.

Consider `COc1ccc(OC2CCN(c3nnc(C(=O)NC4CNC(=O)C4)cc3C)CC2)cn1` (stereo not drawn) [Example 145, 6-{4-[(6-methoxypyridin-3-yl)oxy]piperidin-1-yl}-5-methyl-N-(5-oxopyrrolidin-3-yl)pyridazine-3-carboxamide], for which it took 194 nM to reach a half-maximal effect (EC50). `COc1ccc(OC2CCN(c3nnc(C(=O)NC45CC(C4)C5)cc3C)CC2)cn1` [Example 147, N-bicyclo[1.1.1]pent-1-yl-6-{4-[(6-methoxypyridin-3-yl)oxy]piperidin-1-yl}-5-methylpyridazine-3-carboxamide] gave an EC50 of 209 nM.

The compound `Cc1nc2ccc(OC3CCN(c4nnc(C(=O)NC5C6CC5C6)cc4C)CC3)cc2o1` (stereo not drawn) [Example 148, N-bicyclo[1.1.1]pent-2-yl-5-methyl-6-{4-[(2-methyl-1,3-benzoxazol-6-yl)oxy]piperidin-1-yl}pyridazine-3-carboxamide] returned an EC50 of 221 nM. For `COc1ccc(OC2CCN(c3nnc(C(=O)NCc4c(C)nc5ccccn45)cc3C)CC2)cn1` [Example 149, 6-{4-[(6-methoxypyridin-3-yl)oxy]piperidin-1-yl}-5-methyl-N-[(2-methylimidazo[1,2-a]pyridin-3-yl)methyl]pyridazine-3-carboxamide], the EC50 was found to be 228 nM.

In turn, `COc1ccc(OC2CCN(c3nnc(C(=O)NCc4ccncn4)cc3C)CC2)cn1` [Example 150, 6-{4-[(6-methoxypyridin-3-yl)oxy]piperidin-1-yl}-5-methyl-N-(pyrimidin-4-ylmethyl)pyridazine-3-carboxamide] returned an EC50 of 233 nM. `Cc1cc(C(=O)NCc2ccncc2Cl)nnc1N1CCC(Oc2cccc(C#N)c2)CC1` [Example 151, N-[(3-chloropyridin-4-yl)methyl]-6-[4-(3-cyanophenoxy)piperidin-1-yl]-5-methylpyridazine-3-carboxamide] yielded an EC50 of 241 nM. As for `Cc1cc(C(=O)NCc2ccncc2)nnc1N1CCC(OCC2CC2)CC1` [Example 152], the figure is 259 nM; as for `COc1ccc(OC2CCN(c3nnc(C(=O)NCc4cccc(C#N)c4)cc3C)CC2)cn1` [Example 153, N-(3-cyanobenzyl)-6-{4-[(6-methoxypyridin-3-yl)oxy]piperidin-1-yl}-5-methylpyridazine-3-carboxamide], 261 nM; as for `COc1ccc(OC2CCN(c3nnc(C(=O)NCc4ccncc4Cl)cc3C)CC2)cn1` [Example 154, N-[(3-chloropyridin-4-yl)methyl]-6-{4-[(6-methoxypyridin-3-yl)oxy]piperidin-1-yl}-5-methylpyridazine-3-carboxamide], 262 nM.

The compound `COc1ccc(OC2CCN(c3nnc(C(=O)NCc4cc(C)n(C)n4)cc3C)CC2)cn1` [Example 155, N-[(1,5-dimethyl-1H-pyrazol-3-yl)methyl]-6-{4-[(6-methoxypyridin-3-yl)oxy]piperidin-1-yl}-5-methylpyridazine-3-carboxamide] came in with an EC50 of 265 nM. On to `Cc1ccc(OC2CCN(c3nnc(C(=O)NCc4ccncc4)cc3C)CC2)cc1Cl` [Example 156, 6-[4-(3-chloro-4-methylphenoxy)piperidin-1-yl]-5-methyl-N-(pyridin-4-ylmethyl)pyridazine-3-carboxamide], for which the midpoint of the response, the EC50, lay at 272 nM. As for `Cc1cc(C(=O)NC2C3CC2C3)nnc1N1CCC(Oc2ccc3c(c2)C(=O)N(C)C3)CC1` (stereo not drawn) [Example 157, N-bicyclo[1.1.1]pent-2-yl-5-methyl-6-{4-[(2-methyl-3-oxo-2,3-dihydro-1H-isoindol-5-yl)oxy]piperidin-1-yl}pyridazine-3-carboxamide], the figure is 277 nM; as for `COc1ccc(OC2CCN(c3nnc(C(=O)NCc4ccccc4OC)cc3C)CC2)cn1` [Example 158, N-(2-methoxybenzyl)-6-{4-[(6-methoxypyridin-3-yl)oxy]piperidin-1-yl}-5-methylpyridazine-3-carboxamide], 282 nM; as for `COc1ccc(OC2CCN(c3nnc(C(=O)NC4CCc5ccncc5C4)cc3C)CC2)cn1` (stereo not drawn) [Example 159, 6-{4-[(6-methoxypyridin-3-yl)oxy]piperidin-1-yl}-5-methyl-N-(5,6,7,8-tetrahydroisoquinolin-7-yl)pyridazine-3-carboxamide], 293 nM. `Cc1cc(C(=O)NC2CCc3cccnc3C2)nnc1N1CCC(Oc2cccc(C#N)c2)CC1` (stereo not drawn) [Example 160, 6-[4-(3-cyanophenoxy)piperidin-1-yl]-5-methyl-N-(5,6,7,8-tetrahydroquinolin-7-yl)pyridazine-3-carboxamide] returned an EC50 of 295 nM. This EC50 and that of the compound before are within 1.5-fold of each other. As for `COc1ccc(OC2CCN(c3nnc(C(=O)NC4CC4)cc3C)CC2)cn1` [Example 161, N-cyclopropyl-6-{4-[(6-methoxypyridin-3-yl)oxy]piperidin-1-yl}-5-methylpyridazine-3-carboxamide], the figure is 302 nM; as for `COc1ccc(OC2CCN(c3nnc(C(=O)NCCn4ccnc4)cc3C)CC2)cn1` [Example 162, N-[2-(1H-imidazol-1-yl)ethyl]-6-{4-[(6-methoxypyridin-3-yl)oxy]piperidin-1-yl}-5-methylpyridazine-3-carboxamide], 306 nM.

As usually defined, the EC50 is the concentration that produces a half-maximal response. Lower therefore signals greater potency.
